Assay results reported in paper PMC10023787, “Trio-pharmacophore DNA-encoded chemical library for simultaneous selection of fragments and linkers” (Nature Communications, 2023).

Legend:
MMP-9 [1] = biological target: T1, MMP-9 (Homo sapiens, UniProt P14780); assay: De novo T-DEL selection against MMP-9, NGS decoding; type: binding; conditions: for Enrichment Fold / Count: MMP9 selection; for Count: NGS sequence count per Compound ID (Figure 4a)
T1 construct: purchased Sino Biological 10327-HNAH
Excerpt: (§1) Matrix metalloproteinases (MMPs) are zinc-dependent endopeptidases capable of degrading and remodeling extracellular matrix components[46],[47]. They are attractive therapeutic targets as high expression levels were detected in various diseases, such as inflammatory diseases, and at different stages of cancers, including metastasis, invasion, and angiogenesis[47]–[53]. As shown in Supplementary Fig. 3c, we performed selections against the two gelatinases (human MMP-2 and human MMP-9) to identify binding fragments for later design and synthesis of small molecule inhibitors. After selection, the three sub-libraries were decoded, and the enrichment was calculated by dividing the post-selection fraction (count/total counts) by the pre-selection fraction (Fig. 4a and Supplementary Fig. 13).
(§2) 4 µg of MMP-2/MMP-9 was dissolved in 100 µl of selection buffer containing 25 mM Tris-base, 10 mM CaCl2, 150 mM NaCl, 0.05% Tween 20, pH 7.5. 10 µl of 4-Aminophenylmercuric acetate (APMA) (100 mM) solution was added to the protein solution and incubated at 37 °C for 1 h. After activation, the solution was added on top of 40 µl pre-washed Ni-NTA resin and incubated for 30 min on a rotary shaker. The supernatant was discarded, and the resin was washed three times with the selection buffer.
(§3) For each independent selection, three sub-libraries were mixed in the selection buffer with a final concentration of 40 nM of each sub-library in 100 µl. The mixture was heat denatured at 90 °C for 1 min and slowly cooled down to allow the formation of the trio-pharmacophore library. The dynamic dual-pharmacophore DEL was provided by DyNAbind GmbH (Merck, DYNA001).
(§4) The assembled library was incubated with the protein-bound solid support for 2 h at RT on a rotary shaker. In parallel, selection on bare solid support served as the negative control to exclude promiscuous binders on the resin. After panning, the supernatant was discarded, and the resin was washed three times with 1 ml selection buffer. Finally, 100 µl of 50 mM Tris buffer, pH 7.4 was added to resuspend the resin and the resin was incubated at 95 °C for 5 min to denature the protein, release, and collect the bound library members.
(§5) The eluted library members were subjected to sample preparation for NGS. NGS preparation was achieved by two-step PCR. First, the individual selection was indexed using primers containing unique sequences corresponding to each selection. The amplified product was purified from 2% agarose gel. Second, the purified DNA from all selections were pooled in equal amount and subjected to the 2nd PCR step to attach sequences compatible with the NGS flow cell and the sequencing primers. NGS was performed by Novogene UK with Novaseq 6000. Raw data files (fastq files) obtained were decoded using a custom python script and excel. The sequence reads corresponding to each sample was retrieved by searching for the correct index unique to each selection. Then, the code region was extracted from each sequence and assigned to the corresponding identity. The count of each code in each selection sample was obtained by looping through the total reads and counting the occurrence of each code. The enrichment fold of each compound was calculated by first, dividing the count by the total count to get the abundance, second, the abundance after the selection was divided by the abundance of pre-selection to reflect the distribution change of the compound. Next, the enrichment fold was plotted against the count for each member of the library to give the scatter plots as in Fig. 4.

MMP-9 [2] = biological target: T1, MMP-9; assay: Dynamic dual-pharmacophore DEL selection against MMP-9, NGS decoding; type: binding; conditions: for MMP9 3L Enrichment Fold: 3L library (Supplementary fig 13); for MMP9 3L Count: 3L library; for MMP9 3L Count / MMP9 5L Count: sequence count (Supplementary fig 13); for MMP9 5L Enrichment Fold: 5L library (Supplementary fig 13); for MMP9 5L Count: 5L library
Excerpt: as §1, §2, §3, §4, §5

[3] = NGS sequence count of sub-library SL-A building block, de novo T-DEL selection against MMP-9
[4] = NGS sequence count of sub-library SL-C building block, de novo T-DEL selection against MMP-9
[5] = sub-library SL-A building block, de novo T-DEL selection against MMP-9
[6] = sub-library SL-C building block, de novo T-DEL selection against MMP-9
[7] = enrichment fold of sub-library SL-C member, MMP-9 selection, Figure 4a source data
[8] = sequence count of sub-library SL-C member, MMP-9 selection, Figure 4a source data

T1 sequence (P14780 107-707 limits assumed): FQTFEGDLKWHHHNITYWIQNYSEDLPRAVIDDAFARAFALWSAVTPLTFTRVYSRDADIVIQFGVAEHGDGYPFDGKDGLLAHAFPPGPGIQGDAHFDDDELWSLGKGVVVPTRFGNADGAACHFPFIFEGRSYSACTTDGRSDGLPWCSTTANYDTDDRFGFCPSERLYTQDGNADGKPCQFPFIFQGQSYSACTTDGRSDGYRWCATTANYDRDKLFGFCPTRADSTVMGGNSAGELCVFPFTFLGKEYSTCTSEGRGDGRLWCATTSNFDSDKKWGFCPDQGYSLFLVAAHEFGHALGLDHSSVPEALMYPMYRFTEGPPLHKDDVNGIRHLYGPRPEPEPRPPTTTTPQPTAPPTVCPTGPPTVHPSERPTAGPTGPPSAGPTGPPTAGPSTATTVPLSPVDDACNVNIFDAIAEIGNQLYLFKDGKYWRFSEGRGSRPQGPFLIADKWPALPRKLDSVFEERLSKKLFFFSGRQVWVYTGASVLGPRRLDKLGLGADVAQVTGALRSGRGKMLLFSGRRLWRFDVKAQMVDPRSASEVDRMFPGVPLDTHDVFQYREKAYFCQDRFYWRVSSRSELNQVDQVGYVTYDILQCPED

Structure (SMILES): O=C(O)CNC(=O)NC12CC3CC(CC(C3)C1)C2 [Compound 66]
- Enrichment Fold (MMP-9 [1]; sub-library SL-A (Figure 4a)): 2.103
- Count (MMP-9 [1]; sub-library SL-A): 4968
- Enrichment Fold (MMP-9 [1]; sub-library SL-C (Figure 4a)): 0.3958
- Count (MMP-9 [1]; sub-library SL-C): 87
- Enrichment Fold (MMP-9 [2]; MMP9 selection, 3L sub-library): 0.3958
- Count (MMP-9 [2]; MMP9 selection, 3L sub-library, NGS sequence count): 87
- Enrichment Fold (MMP-9 [2]; MMP9 selection, 5L sub-library): 1.238
- Count (MMP-9 [2]; MMP9 selection, 5L sub-library, NGS sequence count): 2487

Structure (SMILES): O=C(O)Cn1cnc2c(oc3ccccc32)c1=O [Compound 182]
- MMP9 SL-A Count (MMP-9 [1]; NGS sequence count per SL-A member, de novo T-DEL selection against MMP-9 (Figure 4a source data)): 5190
- MMP9 SL-C Count (MMP-9 [1]; NGS sequence count per SL-C member, de novo T-DEL selection against MMP-9 (Figure 4a source data)): 816
- MMP9 SL-A Enrichment Fold (MMP-9 [1]; enrichment fold per SL-A member, de novo T-DEL selection against MMP-9 (Figure 4a source data)): 1.432
- MMP9 SL-C Enrichment Fold (MMP-9 [1]; enrichment fold per SL-C member, de novo T-DEL selection against MMP-9 (Figure 4a source data)): 0.7692
- Enrichment Fold (MMP-9 [2]; MMP9 selection, 3L sub-library): 0.7692
- Count (MMP-9 [2]; MMP9 selection, 3L sub-library, sequence count per compound ID): 816
- Enrichment Fold (MMP-9 [2]; MMP9 selection, 5L sub-library): 1.565
- Count (MMP-9 [2]; MMP9 selection, 5L sub-library, sequence count per compound ID): 4821

Structure (SMILES): Cc1cc(=O)[nH]c(-n2nc(C)c(CCC(=O)O)c2C)n1 [Compound 693]
- MMP9 SL-A Count (MMP-9 [1]; [3]): 8460
- MMP9 SL-C Count (MMP-9 [1]; [4]): 1032
- MMP9 SL-A Enrichment Fold (MMP-9 [1]; [5]): 3.659
- MMP9 SL-C Enrichment Fold (MMP-9 [1]; [6]): 1.167
- MMP9 3L Enrichment Fold (MMP-9 [2]; MMP9 selection): 1.167
- MMP9 3L Count (MMP-9 [2]; MMP9 selection): 1032
- MMP9 5L Enrichment Fold (MMP-9 [2]; MMP9 selection): 4.572
- MMP9 5L Count (MMP-9 [2]; MMP9 selection): 8985

Structure (SMILES): NCc1c[nH]nn1 [Compound 787]
- MMP9 SL-A Count (MMP-9 [1]; [3]): 949
- MMP9 SL-C Count (MMP-9 [1]; [4]): 3684
- MMP9 SL-A Enrichment Fold (MMP-9 [1]; [5]): 0.9459
- MMP9 SL-C Enrichment Fold (MMP-9 [1]; [6]): 3.649
- MMP9 3L Enrichment Fold (MMP-9 [2]; MMP9 selection): 3.649
- MMP9 3L Count (MMP-9 [2]; MMP9 selection): 3684
- MMP9 5L Enrichment Fold (MMP-9 [2]; MMP9 selection): 0.7364
- MMP9 5L Count (MMP-9 [2]; MMP9 selection): 628

Structure (SMILES): Cn1c(O)nc2cc(C(=O)O)cnc21 [Compound 826]
- MMP9 SL-A Count (MMP-9 [1]; [3]): 1891
- MMP9 SL-C Enrichment Fold (MMP-9 [1]; [7]): 4.359
- MMP9 SL-C Count (MMP-9 [1]; [8]): 10836
- MMP9 SL-A Enrichment Fold (MMP-9 [1]; [5]): 1.691
- MMP9 3L Enrichment Fold (MMP-9 [2]; MMP9 selection): 4.359
- MMP9 3L Count (MMP-9 [2]; MMP9 selection): 10836
- MMP9 5L Enrichment Fold (MMP-9 [2]; MMP9 selection): 1.703
- MMP9 5L Count (MMP-9 [2]; MMP9 selection): 1619

Structure (SMILES): O=C(O)c1cncc(O)c1 [Compound 828]
- MMP9 SL-C Enrichment Fold (MMP-9 [1]; [7]): 10.2969
- MMP9 SL-C Count (MMP-9 [1]; [8]): 32127
- Enrichment Fold (MMP-9 [2]; MMP9 3L (3' sub-library members)): 10.2969
- Count (MMP-9 [2]; MMP9 3L (3' sub-library members), NGS sequence count after selection): 32127
